Laboratory results as given in the supplement of paper PMC10307832.

Assays:
Assay in all cases: relative viability (nuclei count vs DMSO), 5 days (fraction); higher = more cells survive
A-427 = test system: A-427
In short: (§1)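 Lung cancer cell lines in 1536-well plates were dosed by pin tool the day after seeding, either with one drug alone or with a fixed anchor-drug dose plus five library-drug doses (not always all listed) in √10 steps. After 5 days, cells were fixed and their nuclei stained in one step (final 0.05% Triton X-100, 1% formaldehyde, 1 ug/ml Hoechst), then counted on 4× images. Relative viability is the nuclei count in treated wells divided by that in vehicle wells. Values are medians of duplicate plates.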

HCC-15 = test system: HCC-15
In short: as §1

HCC-78 = test system: HCC-78
In short: as §1

HOP-62 = test system: HOP-62
In short: as §1

LC-2-ad = test system: LC-2-ad
In short: as §1

LXF-289 = test system: LXF-289
In short: as §1

NCI-H1734 = test system: NCI-H1734
In short: as §1

NCI-H1755 = test system: NCI-H1755
In short: as §1

NCI-H1792 = test system: NCI-H1792
In short: as §1

NCI-H1915 = test system: NCI-H1915
In short: as §1

NCI-H1975 = test system: NCI-H1975
In short: as §1

NCI-H2126 = test system: NCI-H2126
In short: as §1

NCI-H2228 = test system: NCI-H2228
In short: as §1

NCI-H2342 = test system: NCI-H2342
In short: as §1

NCI-H2347 = test system: NCI-H2347
In short: as §1

NCI-H358 = test system: NCI-H358
In short: as §1

NCI-H522 = test system: NCI-H522
In short: as §1

NCI-H647 = test system: NCI-H647
In short: as §1

PC-3 [JPC-3] = test system: PC-3 [JPC-3]
In short: as §1

RERF-LC-KJ = test system: RERF-LC-KJ
In short: as §1

SK-LU-1 = test system: SK-LU-1
In short: as §1

SW 1573 = test system: SW 1573
In short: as §1

## Cc1sc2c(c1C)C(c1ccc(Cl)cc1)=N[C@@H](CC(=O)OC(C)(C)C)c1nnc(C)n1-2 [JQ1] + N=C(N)NC(=N)NCCc1ccccc1 [Phenformin] (partner 250 µM)
A-427; first compound 0.04 µM
  relative viability: 0.315
A-427; first compound 0.1265 µM
  relative viability: 0.241
A-427; first compound 0.4 µM
  relative viability: 0.341
A-427; first compound 1.265 µM
  relative viability: 0.276
A-427; first compound 4 µM
  relative viability: 0.228
HCC-15; first compound 0.04 µM
  relative viability: 0.458
HCC-15; first compound 0.4 µM
  relative viability: 0.318
HCC-15; first compound 1.265 µM
  relative viability: 0.189
HCC-15; first compound 4 µM
  relative viability: 0.19
HCC-78; first compound 0.04 µM
  relative viability: 0.727
HCC-78; first compound 0.1265 µM
  relative viability: 0.657
HCC-78; first compound 0.4 µM
  relative viability: 0.727
HCC-78; first compound 1.265 µM
  relative viability: 0.515
HCC-78; first compound 4 µM
  relative viability: 0.435
HOP-62; first compound 0.04 µM
  relative viability: 0.633
HOP-62; first compound 0.1265 µM
  relative viability: 0.547
HOP-62; first compound 0.4 µM
  relative viability: 0.622
HOP-62; first compound 1.265 µM
  relative viability: 0.182
HOP-62; first compound 4 µM
  relative viability: 0.102
LC-2-ad; first compound 0.04 µM
  relative viability: 0.537
LC-2-ad; first compound 0.1265 µM
  relative viability: 0.468
LC-2-ad; first compound 0.4 µM
  relative viability: 0.401
LC-2-ad; first compound 1.265 µM
  relative viability: 0.222
LC-2-ad; first compound 4 µM
  relative viability: 0.294
LXF-289; first compound 0.04 µM
  relative viability: 0.518
LXF-289; first compound 0.1265 µM
  relative viability: 0.474
LXF-289; first compound 0.4 µM
  relative viability: 0.444
LXF-289; first compound 1.265 µM
  relative viability: 0.323
LXF-289; first compound 4 µM
  relative viability: 0.316
NCI-H1734; first compound 0.04 µM
  relative viability: 0.326
NCI-H1734; first compound 0.1265 µM
  relative viability: 0.312
NCI-H1734; first compound 0.4 µM
  relative viability: 0.336
NCI-H1734; first compound 1.265 µM
  relative viability: 0.251
NCI-H1734; first compound 4 µM
  relative viability: 0.23
NCI-H1755; first compound 0.04 µM
  relative viability: 0.687
NCI-H1755; first compound 0.1265 µM
  relative viability: 0.501
NCI-H1755; first compound 0.4 µM
  relative viability: 0.506
NCI-H1755; first compound 1.265 µM
  relative viability: 0.462
NCI-H1755; first compound 4 µM
  relative viability: 0.419
NCI-H1792; first compound 0.04 µM
  relative viability: 0.323
NCI-H1792; first compound 0.1265 µM
  relative viability: 0.19
NCI-H1792; first compound 0.4 µM
  relative viability: 0.232
NCI-H1792; first compound 1.265 µM
  relative viability: 0.106
NCI-H1792; first compound 4 µM
  relative viability: 0.0948
NCI-H1915; first compound 0.04 µM
  relative viability: 0.347
NCI-H1915; first compound 0.1265 µM
  relative viability: 0.334
NCI-H1915; first compound 0.4 µM
  relative viability: 0.329
NCI-H1915; first compound 1.265 µM
  relative viability: 0.212
NCI-H1915; first compound 4 µM
  relative viability: 0.177
NCI-H1975; first compound 0.04 µM
  relative viability: 0.41
NCI-H1975; first compound 0.1265 µM
  relative viability: 0.31
NCI-H1975; first compound 0.4 µM
  relative viability: 0.381
NCI-H1975; first compound 1.265 µM
  relative viability: 0.299
NCI-H1975; first compound 4 µM
  relative viability: 0.297
NCI-H2126; first compound 0.04 µM
  relative viability: 0.552
NCI-H2126; first compound 0.1265 µM
  relative viability: 0.555
NCI-H2126; first compound 0.4 µM
  relative viability: 0.489
NCI-H2126; first compound 1.265 µM
  relative viability: 0.39
NCI-H2126; first compound 4 µM
  relative viability: 0.411
NCI-H2228; first compound 0.04 µM
  relative viability: 0.305
NCI-H2228; first compound 0.1265 µM
  relative viability: 0.275
NCI-H2228; first compound 0.4 µM
  relative viability: 0.297
NCI-H2228; first compound 1.265 µM
  relative viability: 0.181
NCI-H2228; first compound 4 µM
  relative viability: 0.207
NCI-H2342; first compound 0.04 µM
  relative viability: 0.604
NCI-H2342; first compound 0.1265 µM
  relative viability: 0.57
NCI-H2342; first compound 0.4 µM
  relative viability: 0.694
NCI-H2342; first compound 1.265 µM
  relative viability: 0.809
NCI-H2342; first compound 4 µM
  relative viability: 0.663
NCI-H2347; first compound 0.04 µM
  relative viability: 0.332
NCI-H2347; first compound 0.1265 µM
  relative viability: 0.504
NCI-H2347; first compound 0.4 µM
  relative viability: 0.323
NCI-H2347; first compound 1.265 µM
  relative viability: 0.358
NCI-H2347; first compound 4 µM
  relative viability: 0.233
NCI-H358; first compound 0.04 µM
  relative viability: 0.355
NCI-H358; first compound 0.1265 µM
  relative viability: 0.335
NCI-H358; first compound 0.4 µM
  relative viability: 0.361
NCI-H358; first compound 1.265 µM
  relative viability: 0.198
NCI-H358; first compound 4 µM
  relative viability: 0.161
NCI-H522; first compound 0.04 µM
  relative viability: 0.656
NCI-H522; first compound 0.1265 µM
  relative viability: 0.615
NCI-H522; first compound 0.4 µM
  relative viability: 0.55
NCI-H522; first compound 1.265 µM
  relative viability: 0.519
NCI-H522; first compound 4 µM
  relative viability: 0.323
NCI-H647; first compound 0.04 µM
  relative viability: 0.433
NCI-H647; first compound 0.1265 µM
  relative viability: 0.306
NCI-H647; first compound 0.4 µM
  relative viability: 0.229
NCI-H647; first compound 1.265 µM
  relative viability: 0.0637
NCI-H647; first compound 4 µM
  relative viability: 0.0562
PC-3 [JPC-3]; first compound 0.04 µM
  relative viability: 0.466
PC-3 [JPC-3]; first compound 0.1265 µM
  relative viability: 0.474
PC-3 [JPC-3]; first compound 0.4 µM
  relative viability: 0.46
PC-3 [JPC-3]; first compound 1.265 µM
  relative viability: 0.461
PC-3 [JPC-3]; first compound 4 µM
  relative viability: 0.376
RERF-LC-KJ; first compound 0.04 µM
  relative viability: 0.402
RERF-LC-KJ; first compound 0.1265 µM
  relative viability: 0.374
RERF-LC-KJ; first compound 0.4 µM
  relative viability: 0.324
RERF-LC-KJ; first compound 1.265 µM
  relative viability: 0.316
RERF-LC-KJ; first compound 4 µM
  relative viability: 0.292
SK-LU-1; first compound 0.04 µM
  relative viability: 0.607
SK-LU-1; first compound 0.1265 µM
  relative viability: 0.386
SK-LU-1; first compound 0.4 µM
  relative viability: 0.458
SK-LU-1; first compound 1.265 µM
  relative viability: 0.171
SK-LU-1; first compound 4 µM
  relative viability: 0.136
SW 1573; first compound 0.04 µM
  relative viability: 0.331
SW 1573; first compound 0.1265 µM
  relative viability: 0.304
SW 1573; first compound 0.4 µM
  relative viability: 0.402
SW 1573; first compound 1.265 µM
  relative viability: 0.231
SW 1573; first compound 4 µM
  relative viability: 0.233
